Here are results for 24 compounds from US8455475B2 (Gruenenthal GmbH, priority 2009, dated 2013).

This test concerns the target T1, rat B1R (bradykinin receptor 1) (Rattus norvegicus, UniProt P97583).
T1 construct: expressed in transfected cells; host or cells: CHO K1 cells
T1 sequence (P97583 1-337): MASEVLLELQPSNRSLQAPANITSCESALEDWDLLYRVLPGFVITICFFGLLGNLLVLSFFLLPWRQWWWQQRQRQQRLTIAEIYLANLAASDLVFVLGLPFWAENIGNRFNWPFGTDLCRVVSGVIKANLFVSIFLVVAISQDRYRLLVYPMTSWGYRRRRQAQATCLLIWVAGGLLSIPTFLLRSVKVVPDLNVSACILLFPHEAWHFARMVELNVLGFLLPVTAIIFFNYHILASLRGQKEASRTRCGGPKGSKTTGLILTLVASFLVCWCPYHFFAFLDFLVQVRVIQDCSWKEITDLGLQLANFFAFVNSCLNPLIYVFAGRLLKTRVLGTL
Briefly: FLIPR Ca2+ assay (Fluo-4) on CHO K1 cells stably transfected with the B1R gene of the rat (rB1R cells): % inhibition at 10 μM / IC50, agonist Des-Arg9-bradykinin. In kind it is cell-based. The following applies: CHO-K1, rat B1R. The essentials: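 Using a two-addition FLIPR protocol, compound (10 μM for % values; concentration series for IC50) was preincubated 10–20 min with Fluo-4-loaded B1R-expressing CHO K1 cells before EC80 agonist challenge. Suppression of Ca2+ inflow, read as peak fluorescence, is expressed relative to maximum achievable inhibition; duplicate/triplicate, ≥2 independent experiments.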
For `CCn1cc(CN2CCC3(CC2)CCN(C(=O)c2ccc4c(c2)C(NC(=O)c2ccccc2Cl)CC4)C3)c(C)n1` (stereo not drawn) [IND_CC-565, 2-Chloro-N-[6-[8-[(1-ethyl-3-methyl-1H-pyrazol-4-yl)-methyl]-2,8-diazaspiro[4.5]decane-2-carbonyl]-2,3-dihydro-1H-inden-1-yl]-benzamide], at 10 µM the inhibition was 68%.
`CN(C)c1ncc(CN2CCC3(CC2)CCN(C(=O)c2ccc4c(c2)C(NC(=O)c2ccccc2Cl)CC4)C3)cn1` (stereo not drawn) [IND_CC-566, 2-Chloro-N-[6-[8-[(2-dimethylamino-pyrimidin-5-yl)-methyl]-2,8-diazaspiro[4.5]decane-2-carbonyl]-2,3-dihydro-1H-inden-1-yl]-benzamide] came in with an inhibition at 10 µM of 90%.
The result for `O=C(NC1CCc2ccc(C(=O)N3CCC4(CCN(Cc5ccc6ncccc6c5)CC4)C3)cc21)c1ccccc1Cl` (stereo not drawn) [IND_CC-567, 2-Chloro-N-[6-[8-(quinolin-6-yl-methyl)-2,8-diazaspiro[4.5]decane-2-carbonyl]-2,3-dihydro-1H-inden-1-yl]-benzamide] reads 100%.
For `N#Cc1ccc(CN2CCC3(CC2)CCN(C(=O)c2ccc4c(c2)C(NC(=O)c2sccc2Cl)CC4)C3)cc1` (stereo not drawn) [IND_CC-569, 3-Chloro-N-[6-[8-[(4-cyano-phenyl)-methyl]-2,8-diazaspiro[4.5]decane-2-carbonyl]-2,3-dihydro-1H-inden-1-yl]-thiophene-2-carboxylic acid amide] the value was 52%.
As to `O=C(NC1CCc2ccc(C(=O)N3CCC4(CCN(Cc5ccc6ncccc6c5)CC4)C3)cc21)c1sccc1Cl` (stereo not drawn) [IND_CC-570, 3-Chloro-N-[6-[8-(quinolin-6-yl-methyl)-2,8-diazaspiro[4.5]decane-2-carbonyl]-2,3-dihydro-1H-inden-1-yl]-thiophene-2-carboxylic acid amide], the inhibition at 10 µM turned out to be 57%.
For the compound `O=C(NC1CCc2ccc(C(=O)N3CCC4(CCN(Cc5ccc6nccnc6c5)CC4)C3)cc21)c1sccc1Cl` (stereo not drawn) [IND_CC-571, 3-Chloro-N-[6-[8-(quinoxalin-6-yl-methyl)-2,8-diazaspiro[4.5]decane-2-carbonyl]-2,3-dihydro-1H-inden-1-yl]-thiophene-2-carboxylic acid amide], the inhibition at 10 µM was determined as 52%.
With `CN(C(=O)c1ccccc1Cl)C1CCc2ccc(C(=O)N3CCC4(CCN(Cc5cccc(C#N)c5)CC4)C3)cc21` (stereo not drawn) [IND_CC-572, 2-Chloro-N-[6-[8-[(3-cyano-phenyl)-methyl]-2,8-diazaspiro[4.5]decane-2-carbonyl]-2,3-dihydro-1H-inden-1-yl]-N-methyl-benzamide], the inhibition at 10 µM is 80%.
For `O=C(NC1CCc2ccc(C(=O)N3CCC4(CCN(C(=O)c5ccc(F)cc5Cl)CC4)C3)cc21)c1ccccc1Cl` (stereo not drawn) [IND_CC-575, 2-Chloro-N-[6-[8-(2-chloro-4-fluoro-benzoyl)-2,8-diazaspiro[4.5]decane-2-carbonyl]-2,3-dihydro-1H-inden-1-yl]-benzamide] the value was 78%.
For `O=C(NC1CCc2ccc(C(=O)N3CCC4(CCN(C(=O)c5ccc(F)cc5F)CC4)C3)cc21)c1ccccc1Cl` (stereo not drawn) [IND_CC-576, 2-Chloro-N-[6-[8-(2,4-difluoro-benzoyl)-2,8-diazaspiro[4.5]decane-2-carbonyl]-2,3-dihydro-1H-inden-1-yl]-benzamide] the value was 79%; for `Cn1nc(C(C)(C)C)cc1C(=O)N1CCC2(CCN(C(=O)c3ccc4c(c3)C(NC(=O)c3ccccc3Cl)CC4)C2)CC1` (stereo not drawn) [IND_CC-578, N-[6-[8-(5-tert-Butyl-2-methyl-2H-pyrazole-3-carbonyl)-2,8-diazaspiro-[4.5]decane-2-carbonyl]-2,3-dihydro-1H-inden-1-yl]-2-chloro-benzamide], 79%; for `Cc1cc(C(=O)N2CCC3(CCN(C(=O)c4ccc5c(c4)C(NC(=O)c4ccccc4Cl)CC5)C3)CC2)n(C(C)(C)C)n1` (stereo not drawn) [IND_CC-579, N-[6-[8-(2-tert-Butyl-5-methyl-2H-pyrazole-3-carbonyl)-2,8-diazaspiro-[4.5]decane-2-carbonyl]-2,3-dihydro-1H-inden-1-yl]-2-chloro-benzamide], 57%.
The result for `COc1cc(C)c(C(=O)NC2CCc3ccc(C(=O)N4CCC5(CCN(C(=O)c6cc(C(C)(C)C)nn6C)CC5)C4)cc32)c(C)c1` (stereo not drawn) [IND_CC-580, N-[6-[8-(5-tert-Butyl-2-methyl-2H-pyrazole-3-carbonyl)-2,8-diazaspiro[4.5]decane-2-carbonyl]-2,3-dihydro-1H-inden-1-yl]-4-methoxy-2,6-dimethyl-benzamide] reads 81%.
As to `COc1cc(C)c(C(=O)NC2CCc3ccc(C(=O)N4CCC5(CCN(C(=O)c6cc(C)nn6C(C)(C)C)CC5)C4)cc32)c(C)c1` (stereo not drawn) [IND_CC-581, N-[6-[8-(2-tert-Butyl-5-methyl-2H-pyrazole-3-carbonyl)-2,8-diazaspiro[4.5]decane-2-carbonyl]-2,3-dihydro-1H-inden-1-yl]-4-methoxy-2,6-dimethyl-benzamide], 10 µM produced 67% inhibition.
The result for `O=C(NC1CCc2ccc(C(=O)N3CCC4(CCN(C(=O)C5CC5)CC4)C3)cc21)c1sccc1Cl` (stereo not drawn) [IND_CC-582, 3-Chloro-N-[6-[8-(cyclopropanecarbonyl)-2,8-diazaspiro[4.5]decane-2-carbonyl]-2,3-dihydro-1H-inden-1-yl]-thiophene-2-carboxylic acid amide] reads 58%; that for `CC(C)(C)CC(=O)N1CCC2(CC1)CCN(C(=O)c1ccc3c(c1)C(NC(=O)c1sccc1Cl)CC3)C2` (stereo not drawn) [IND_CC-583, 3-Chloro-N-[6-[8-(3,3-dimethyl-butanoyl)-2,8-diazaspiro[4.5]decane-2-carbonyl]-2,3-dihydro-1H-inden-1-yl]-thiophene-2-carboxylic acid amide], 75%; that for `O=C(NC1CCc2ccc(C(=O)N3CCC4(CCN(C(=O)c5ccc(F)cc5Cl)CC4)C3)cc21)c1sccc1Cl` (stereo not drawn) [IND_CC-584, 3-Chloro-N-[6-[8-(2-chloro-4-fluoro-benzoyl)-2,8-diazaspiro[4.5]decane-2-carbonyl]-2,3-dihydro-1H-inden-1-yl]-thiophene-2-carboxylic acid amide], 63%.
For `O=C(NC1CCc2ccc(C(=O)N3CCC4(CCN(C(=O)c5ccc(F)cc5F)CC4)C3)cc21)c1sccc1Cl` (stereo not drawn) [IND_CC-585, 3-Chloro-N-[6-[8-(2,4-difluoro-benzoyl)-2,8-diazaspiro[4.5]decane-2-carbonyl]-2,3-dihydro-1H-inden-1-yl]-thiophene-2-carboxylic acid amide] the value was 52%.
`O=C(NC1CCc2ccc(C(=O)N3CCC4(CCN(C(=O)Cc5ccc(Cl)cc5)CC4)C3)cc21)c1sccc1Cl` (stereo not drawn) [IND_CC-586, 3-Chloro-N-[6-[8-[2-(4-chlorophenyl)-acetyl]-2,8-diazaspiro[4.5]decane-2-carbonyl]-2,3-dihydro-1H-inden-1-yl]-thiophene-2-carboxylic acid amide] had an inhibition at 10 µM of 76%.
For `Cn1nc(C(C)(C)C)cc1C(=O)N1CCC2(CCN(C(=O)c3ccc4c(c3)C(NC(=O)c3sccc3Cl)CC4)C2)CC1` (stereo not drawn) [IND_CC-587, N-[6-[8-(5-tert-Butyl-2-methyl-2H-pyrazole-3-carbonyl)-2,8-diazaspiro[4.5]-decane-2-carbonyl]-2,3-dihydro-1H-inden-1-yl]-3-chloro-thiophene-2-carboxylic acid amide] the value was 71%.
The result for `Cc1cc(C(=O)N2CCC3(CCN(C(=O)c4ccc5c(c4)C(NC(=O)c4sccc4Cl)CC5)C3)CC2)n(C(C)(C)C)n1` (stereo not drawn) [IND_CC-588, N-[6-[8-(2-tert-Butyl-5-methyl-2H-pyrazole-3-carbonyl)-2,8-diazaspiro[4.5]-decane-2-carbonyl]-2,3-dihydro-1H-inden-1-yl]-3-chloro-thiophene-2-carboxylic acid amide] reads 61%; that for `CN(C(=O)c1ccccc1Cl)C1CCc2ccc(C(=O)N3CCC4(CCN(C(=O)C5CC5)CC4)C3)cc21` (stereo not drawn) [IND_CC-589, 2-Chloro-N-[6-[8-(cyclopropanecarbonyl)-2,8-diazaspiro[4.5]decane-2-carbonyl]-2,3-dihydro-1H-inden-1-yl]-N-methyl-benzamide], 81%.
The result for `CN(C(=O)c1ccccc1Cl)C1CCc2ccc(C(=O)N3CCC4(CCN(C(=O)CC(C)(C)C)CC4)C3)cc21` (stereo not drawn) [IND_CC-590, 2-Chloro-N-[6-[8-(3,3-dimethyl-butanoyl)-2,8-diazaspiro[4.5]decane-2-carbonyl]-2,3-dihydro-1H-inden-1-yl]-N-methyl-benzamide] reads 86%; that for `CN(C(=O)c1ccccc1Cl)C1CCc2ccc(C(=O)N3CCC4(CCN(C(=O)c5ccc(F)cc5Cl)CC4)C3)cc21` (stereo not drawn) [IND_CC-591, 2-Chloro-N-[6-[8-(2-chloro-4-fluoro-benzoyl)-2,8-diazaspiro[4.5]decane-2-carbonyl]-2,3-dihydro-1H-inden-1-yl]-N-methyl-benzamide], 62%; that for `CN(C(=O)c1ccccc1Cl)C1CCc2ccc(C(=O)N3CCC4(CCN(C(=O)Cc5ccc(Cl)cc5)CC4)C3)cc21` (stereo not drawn) [IND_CC-592, 2-Chloro-N-[6-[8-[2-(4-chlorophenyl)-acetyl]-2,8-diazaspiro[4.5]decane-2-carbonyl]-2,3-dihydro-1H-inden-1-yl]-N-methyl-benzamide], 85%.
